# Experimental data published in patent US20140179681A1, “METHODS AND COMPOSITIONS OF TARGETED DRUG DEVELOPMENT” (priority 2010, published 2014).
# Where a name gives a salt, the structure may show the parent alone. Read-outs that look alike come from different tables or passages of the source.
# Tests used:
# [1] = biological target: T1, EGFR (Homo sapiens, UniProt P00533); assay: EGFR in-cell Western (ICW) screening protocol (EGFR inhibition assay); format: cell-based; design: ICW 1 / ICW 2 / ICW Avg: unit not given here; conditions: for ICW assay: Table 10; for ICW assay / ICW Screen: % Inhibition of EGF dependent EGFR phosphorylation in A431 cells, compound 125 μM in assay; for ICW Screen: Table 11; for ICW Avg / ICW 1 / ICW 2: ICW assay; for ICW Avg: average of runs 1 and 2; for ICW 1: run 1; for ICW 2: run 2
# T1 construct: host or cells: A431
# T1 sequence (P00533 25-1210): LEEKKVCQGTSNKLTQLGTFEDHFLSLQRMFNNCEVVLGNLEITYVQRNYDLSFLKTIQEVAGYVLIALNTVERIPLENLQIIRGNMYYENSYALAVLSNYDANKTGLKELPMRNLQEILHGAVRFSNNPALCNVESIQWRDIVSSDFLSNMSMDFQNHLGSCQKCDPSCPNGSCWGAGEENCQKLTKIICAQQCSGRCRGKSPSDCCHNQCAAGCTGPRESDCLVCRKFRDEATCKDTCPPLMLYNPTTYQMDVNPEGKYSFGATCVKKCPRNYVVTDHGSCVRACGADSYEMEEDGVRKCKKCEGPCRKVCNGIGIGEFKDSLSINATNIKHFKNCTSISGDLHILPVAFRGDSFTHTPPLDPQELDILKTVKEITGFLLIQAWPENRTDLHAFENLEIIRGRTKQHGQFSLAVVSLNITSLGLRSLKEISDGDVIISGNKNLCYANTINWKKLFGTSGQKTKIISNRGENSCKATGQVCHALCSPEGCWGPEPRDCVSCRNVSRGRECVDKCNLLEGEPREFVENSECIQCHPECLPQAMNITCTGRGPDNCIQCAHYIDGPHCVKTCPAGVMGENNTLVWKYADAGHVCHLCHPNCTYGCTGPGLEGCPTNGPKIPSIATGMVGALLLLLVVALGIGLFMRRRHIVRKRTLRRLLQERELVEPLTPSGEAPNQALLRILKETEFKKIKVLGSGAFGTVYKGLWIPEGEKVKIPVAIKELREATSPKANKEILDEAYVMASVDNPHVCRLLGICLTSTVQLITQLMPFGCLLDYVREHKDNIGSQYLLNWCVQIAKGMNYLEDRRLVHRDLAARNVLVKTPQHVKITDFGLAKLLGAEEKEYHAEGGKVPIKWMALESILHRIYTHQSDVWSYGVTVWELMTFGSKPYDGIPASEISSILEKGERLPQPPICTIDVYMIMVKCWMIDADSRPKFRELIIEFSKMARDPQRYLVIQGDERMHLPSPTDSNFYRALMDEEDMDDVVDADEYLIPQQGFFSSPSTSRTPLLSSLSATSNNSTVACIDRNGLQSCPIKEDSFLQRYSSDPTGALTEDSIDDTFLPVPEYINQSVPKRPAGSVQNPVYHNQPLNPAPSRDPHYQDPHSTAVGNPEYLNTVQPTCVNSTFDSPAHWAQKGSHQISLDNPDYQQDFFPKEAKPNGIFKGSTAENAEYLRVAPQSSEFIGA
# Procedure, shortened: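 In-cell Western read-out: fixed A431 cells were co-stained for total EGFR and phospho-EGFR (Tyr1173; some runs Tyr1045). Before fixation, cells were serum-starved for 2 h, exposed to compound for 4 h, then given EGF for 10 min, usually at 10 ng/ml final (6.6 or 12.5 ng/ml in some runs).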
# [2] = tested on: epithelial carcinoma A431 cell line; assay: MTT Cell Proliferation Assay, A431 cells; format: cell-based; conditions: for MTT Assay IC50(A431/MDBK): ratio in parentheses: ratio MDBK IC50 / A431 IC50 (selectivity)
# Procedure, shortened: (§1)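 Each concentration ran in quadruplicate across duplicate plates, with compounds serially diluted in DMSO and delivered at 0.5% DMSO in 0.5% FBS medium for 3 days.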
# [3] = tested on: MDBK line; assay: MTT Cell Proliferation Assay, MDBK cells; format: cell-based, bovine
# Procedure, shortened: as §1
# [4] = Homo sapiens, A-431, 72 h, Table 10, first of x/y(ratio): A431, three day treatment, unit not printed (doses in μM), read-out: MTT assay (first value)
# [5] = Bos taurus, MDBK, 72 h, Table 10, second of x/y(ratio): MDBK, three day treatment, unit not printed (doses in μM), read-out: MTT assay (second value)
# [6] = Homo sapiens, A-431, 72 h, Table 11, first of x/y(ratio): A431, unit not printed (doses in μM), read-out: MTT Screen (first value)
# [7] = Homo sapiens, A-431, first value of 'a/b (c)', taken as A431 cells, read-out: MTT Screen, first value of cell
# [8] = Bos taurus, MDBK, second value of 'a/b (c)', taken as MDBK cells, read-out: MTT Screen, second value of cell
# [9] = Homo sapiens, A-431, A431 cells, first value of cell, read-out: MTT Assay IC50(A431/MDBK): A431
# [10] = Bos taurus, MDBK, MDBK cells, second value of cell, read-out: MTT Assay IC50(A431/MDBK): MDBK
# [11] = A431 cells, first value of cell, read-out: MTT Assay IC50(A431/MDBK): A431
# [12] = MDBK cells, second value of cell, read-out: MTT Assay IC50(A431/MDBK): MDBK
# [13] = Bos taurus, MDBK, Table 11, second of x/y(ratio): MDBK, unit not printed (doses in μM), read-out: MTT Screen (second value)
ICW Screen (ICW Inhibition) [1],"IC50 [2, 7] [µM]",ICW Avg [1],ICW 1 [1],ICW 2 [1],MTT Assay IC50(A431/MDBK): ratio in parentheses [2],Compound,"IC50 [3, 8] [µM]",other results
–,–,–,–,–,–,CC1CCc2cc(F)ccc2N1S(=O)(=O)c1ccc(NC(=S)Nc2ccc(F)c(Cl)c2)cc1 (centres unmarked) [AD4-12836],–,"ICW assay [1]: 46.1658; IC50 [2, 4]: 9.32 µM; IC50 [3, 5]: 8.43 µM"
–,–,–,–,–,–,O=c1cc(CN2CCN(Cc3ccccc3)CC2)c2cc3c(cc2o1)OCO3 [AD4-10639],–,"ICW Screen [1]: 43.695; IC50 [2, 6]: 42.6 µM; MTT Screen (second value) ([3]; Table 11, second of x/y(ratio): MDBK, unit not printed (doses in μM)): non-convergent"
34.399,15.8,–,–,–,–,C=CCN(CC=C)S(=O)(=O)c1ccc(NC(=S)NC(=O)/C=C/c2ccc(OC)cc2)cc1 [AD4-12016],23.5,–
–,–,49.32,42.15,56.48,–,CCCCc1c(C)nc(Nc2nc(C)c3cc(C)ccc3n2)[nH]c1=O [compound 11498],–,"IC50 [2, 9]: 5.39 µM; IC50 [3, 10]: 8.77 µM"
–,–,31.68,30.00,33.36,0.68,CCCc1cc(=O)[nH]c(Nc2nc(C)c3ccc(C)cc3n2)n1 [compound 12655],–,"IC50 [2, 11]: 11.6 µM; IC50 [3, 12]: 7.89 µM"
–,–,–,–,–,–,COc1ccc(NS(=O)(=O)c2ccc(NC(=S)Nc3ccc(OC)c(OC)c3)cc2)cc1 [AD4-12433],–,"ICW assay [1]: 54.4095; IC50 [2, 4]: 29.1 µM; IC50 [3, 5]: 38.5 µM"
37.949,19.4,–,–,–,–,COc1ccc(/C=C/C(=O)NC(=S)Nc2ccc(S(=O)(=O)Nc3nc(C)cc(C)n3)cc2)cc1 [AD4-11646],21.1,–
–,–,–,–,–,–,O=c1cc(CN2CCN(Cc3ccccc3)CC2)c2cc(Cl)c(O)cc2o1 [AD4-10180],–,"ICW Screen [1]: 32.1; IC50 [2, 6]: 16.7 µM; IC50 [3, 13]: 36.3 µM"
66.452,45.6,–,–,–,–,COc1ccc(/C=C/C(=O)NC(=S)Nc2ccc(S(=O)(=O)Nc3cc(OC)nc(OC)n3)cc2)cc1 [AD4-11645],47,–
45.095,6.49,–,–,–,–,Cc1ccc(NS(=O)(=O)c2ccc(NC(=S)NC(=O)C(C)(C)C)cc2)c(C)c1 [AD4-11968],6.29,–
–,–,82.77,79.12,86.41,1.35,CCCc1c(-c2ccccc2)nc(Nc2nc(C)c3ccccc3n2)[nH]c1=O [compound 12732],–,"IC50 [2, 11]: 11.1 µM; IC50 [3, 12]: 15 µM"
–,–,43.43,32.35,54.51,1.38,CCCc1c(C)nc(Nc2nc(C)c3cc(C)cc(C)c3n2)[nH]c1=O [compound 12736],–,"IC50 [2, 11]: 7.14 µM; IC50 [3, 12]: 9.82 µM"
35.514,13.9,–,–,–,–,CC(C)(C)C(=O)NC(=S)Nc1ccc(S(=O)(=O)NCCc2ccccc2)cc1 [AD4-10613],11.8,–
–,–,–,–,–,–,CC(C)c1ccc2oc(=O)cc(CN3CCN(C/C=C/c4ccccc4)CC3)c2c1 [AD4-10188],–,"ICW Screen [1]: 53.35; IC50 ([2]; Homo sapiens, A-431, Table 11, first of x/y(ratio): A431, unit not printed (doses in μM), read-out: MTT Screen (first value)): 9.05 µM; IC50 [3, 13]: 16.3 µM"
37.604,47.3,–,–,–,–,CCc1nnc(NS(=O)(=O)c2ccc(NC(=S)NC(=O)/C=C/c3cccs3)cc2)s1 [AD4-11880],47.3,–
–,–,52.18,47.72,56.65,0.65,CCc1c(C)nc(Nc2nc(C)c3cccc(OC)c3n2)[nH]c1=O [compound 12613],–,"IC50 [2, 11]: 17.6 µM; IC50 [3, 12]: 11.5 µM"
–,–,45.72,52.69,38.76,1.00,Cc1nc(Nc2nc(C)c3cccc(C)c3n2)[nH]c(=O)c1Cc1ccccc1 [12611 + TFA],–,"IC50 [2, 9]: 5.32 µM; IC50 [3, 10]: 5.31 µM"
–,–,37.56,31.05,44.08,1.15,COc1cccc2c(C)nc(Nc3nc(-c4ccc(F)cc4)cc(=O)[nH]3)nc12 [compound 12778],–,"IC50 [2, 9]: 4.66 µM; IC50 [3, 10]: 5.34 µM"
